Source: US4670469A, “Hydroxamic acid and pharmaceutical preparations containing the same” (VEB Arzneimittelwerk Dresden, priority 1983, dated 1987)

Key:
[1] = system: aorta endothelial cells of calves; experiment: Formation of lipoxygenase products of arachidonic acid in cultivated aorta endothelial cells; format: cell-based; details: 0.1 mM
Experimental: (§1) The inhibition of thrombocyte aggregation is likewise ascribed to the inhibition of lipoxygenase in the cells. It has thus been shown that the arachidonate-lipoxygenase activity of a microsome-free lysate of human thrombocyte concentrates is inhibited to the extent of 100% by means of 0.25 mM salicylhydroxamic acid. Moreover, it has been shown that also a series of further lipoxygenases are inhibited by means of the here described hydroxamic acids. The lipoxygenase from soybeans reacts the most insensitive, i.e. it is inhibited by means of 1 mM salicylhydroxamic acid at pH 7.4 to an extent of 60% and by means of 0.4 mM 2-hydroxy-1-napthylhydroxamic acid to an extent of 54%. In contrast, for the lipoxygenase from peas which come closer in their characteristics to human lipoxygenase, the following I50 -values are provided: salicyl hydroxamic acid, 5 μM, 2-hydroxy-1-napthylhydroxamic acid, 2 μM, 2(2'-napthoxy)-acethydroxamic acid, 2 μM. Moreover it has been shown that the formation lipoxygenase products of arachidonic acid in in vitro cultivated aorta endothelial cells of calves is hindered through 0.1 mM 2-hydroxy-1-napthylhydroxamic acids.

[2] = system: thrombocyte aggregation; experiment: Arachidonic acid-induced thrombocyte aggregation in thrombocyte-rich plasma; format: cell-based, humans; details: Homo sapiens; 0.8 mM arachidonic acid; concentration giving total restraint of aggregation
From the text: Since with the new medicines the restraints of lipoxygenase has been identified as a molecular type of attack, also their influence on the thrombocyte-aggregation has been tested. The essential role of the lipoxygenase pathway for irreversibility of the thrombocyte aggregation is now known. (C. E. Dutilh et al. Prostaglandins and Medicine 6, 111 (1981)). The key role is attributed to the irreversibility of the thrombocyte aggregation in the pathogenesis of thrombotic illnesses. […] In the experiments, the thrombocyte aggregation was triggered either by means of arachidonic acid or by means of platelet activation factor (PAF-Acether).
The testing of the compounds for antithrombotic and thrombolytic activity follows in authentic cell systems of humans in vitro. Thrombocyte-rich plasma from the blood of healthy donors is obtained by centrifugation at 1,000×g. The measurement of the thrombocyte aggregation follows by means of an aggregometer based upon diffuse light scattering or light absorption of the produced cell aggregate. The thrombocyte-rich plasma is pre-incubated at 37° C. for 3 minutes with the active substance or substances; thereafter the thrombocyte aggregation is triggered through the addition of either 0.8 mM arachidonic acid or 1 μM platelet activation factor (PAF-acether). The preparations are then stirred with a velocity of 800 rpm. Indeed according to the employed active substance concentration there occurs either a strong delay or a complete inhibition of the thrombocyte aggregation.

[3] = molecular target: T1, lipoxygenase from soybeans (Glycine max, UniProt P08170); experiment: Inhibition of lipoxygenase from soybeans; format: biochemical; details: 0.4 mM; read-out: inhibition of soybean lipoxygenase
T1 construct: host or cells: soybeans
T1 sequence (P08170 1-839): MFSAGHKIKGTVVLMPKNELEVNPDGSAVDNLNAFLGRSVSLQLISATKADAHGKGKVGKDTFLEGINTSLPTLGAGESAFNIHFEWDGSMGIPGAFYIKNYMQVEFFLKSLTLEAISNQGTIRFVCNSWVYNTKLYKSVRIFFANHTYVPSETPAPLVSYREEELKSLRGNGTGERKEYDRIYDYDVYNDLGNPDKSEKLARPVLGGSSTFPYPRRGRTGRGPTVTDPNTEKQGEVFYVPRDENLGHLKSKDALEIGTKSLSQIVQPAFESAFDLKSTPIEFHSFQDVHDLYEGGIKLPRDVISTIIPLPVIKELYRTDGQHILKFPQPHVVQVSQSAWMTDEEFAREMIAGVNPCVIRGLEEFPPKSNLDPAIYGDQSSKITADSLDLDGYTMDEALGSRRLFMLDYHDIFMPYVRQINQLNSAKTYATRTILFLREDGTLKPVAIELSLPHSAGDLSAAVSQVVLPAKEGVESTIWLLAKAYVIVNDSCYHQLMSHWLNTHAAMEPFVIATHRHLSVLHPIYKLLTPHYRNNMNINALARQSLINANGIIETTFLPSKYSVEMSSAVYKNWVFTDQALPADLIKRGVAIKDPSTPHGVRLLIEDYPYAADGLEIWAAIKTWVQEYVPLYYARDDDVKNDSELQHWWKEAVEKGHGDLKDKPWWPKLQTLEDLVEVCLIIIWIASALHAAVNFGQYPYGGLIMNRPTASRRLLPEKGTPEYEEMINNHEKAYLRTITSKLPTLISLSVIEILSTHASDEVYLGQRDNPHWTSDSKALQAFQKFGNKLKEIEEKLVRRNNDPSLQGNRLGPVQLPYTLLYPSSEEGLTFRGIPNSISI
Experimental: as §1

[4] = molecular target: T2, lipoxygenase from rabbit reticulocytes (Oryctolagus cuniculus, UniProt P12530); experiment: Inhibition of the activity of lipoxygenase from rabbit reticulocytes (oxygen consumption, Clark electrode); format: biochemical; details: 25° C., pH 7.4, 0.53 mM linoleic acid, 15 min pre-incubation
T2 construct: The lipoxygenase from rabbit reticulocytes is obtained in electrophoretically and immunologically pure form; from tissue; host or cells: rabbit reticulocytes
T2 sequence (P12530 1-663): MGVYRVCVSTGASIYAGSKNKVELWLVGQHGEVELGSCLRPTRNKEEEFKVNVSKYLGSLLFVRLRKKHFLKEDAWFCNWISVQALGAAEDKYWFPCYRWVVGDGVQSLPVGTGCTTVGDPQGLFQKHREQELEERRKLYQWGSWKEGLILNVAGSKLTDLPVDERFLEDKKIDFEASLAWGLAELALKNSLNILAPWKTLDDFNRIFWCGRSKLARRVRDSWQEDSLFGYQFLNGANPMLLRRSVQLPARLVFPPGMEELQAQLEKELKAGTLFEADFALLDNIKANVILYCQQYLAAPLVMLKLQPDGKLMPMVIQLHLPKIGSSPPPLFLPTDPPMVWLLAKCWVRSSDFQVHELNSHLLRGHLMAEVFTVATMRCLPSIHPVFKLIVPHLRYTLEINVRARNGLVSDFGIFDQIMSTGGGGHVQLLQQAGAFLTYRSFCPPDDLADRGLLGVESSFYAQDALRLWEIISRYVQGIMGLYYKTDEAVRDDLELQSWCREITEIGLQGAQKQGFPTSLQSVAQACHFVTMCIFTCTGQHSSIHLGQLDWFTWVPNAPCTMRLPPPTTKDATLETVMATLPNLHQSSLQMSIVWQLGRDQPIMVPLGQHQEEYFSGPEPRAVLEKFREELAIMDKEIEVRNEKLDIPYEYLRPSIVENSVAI
Experimental: The lipoxygenase from rabbit reticulocytes was obtained in electrophoretically and immunologically pure form according to a technique known from the literature (S. M. Rapoport et al. Methods in Enzymology 71, 430 (1981)). The determination of lipoxygenase activity follows at 25° C. through the polarographic measurement of the oxygen consumption by means of Clark Electrode in a standardized system.
Through variation of the substance concentrations, the titration curves of the inhibition and therefrom the inhibition concentrations (I-value) of the compounds can be determined.
The testing of compounds for antiasthmatic, antiallergenic, inflammation-inhibiting and antithrombotic activity on the basis on the inhibition of the lipoxygenase reaction of the arachidonic acid cascade follows in a molecular/pharmacological test system. […] The lipoxygenase from rabbit reticulocytes is obtained in electrophoretically and immunologically pure form according to the techniques described in the literature (supra). The determination of the lipoxygenase activity follows at 25° C. through the polorographic measurement of oxygen consumption by means of a Clark-electrode in the following system: 0.1M potassiumphosphate, pH 7.4, with 0.2 percent sodium cholate and 0.53 mM linoleic acid. The enzyme concentration in the measurement preparation came to 25 nM. The compounds to be tested are dissolved in methylglycol (freshly distilled in a vacuum) and pre-incubated for 15 minutes at the measuring temperature in the absence of sodium cholate and linoleic acid. […] The enzyme reaction is started by the addition of sodium cholate and linoleic acid.

[5] = molecular target: lipoxygenase from peas; experiment: Inhibition of lipoxygenase from peas; format: biochemical; details: read-out: I50
Experimental: as §1

O=C(NO)c1c(O)ccc2ccccc12 [2-hydroxy-1-naphthylhydroxanic acid, 2-hydroxy-1-naphthylhydroxamic acid]
formation of lipoxygenase products of arachidonic acid [1]: hindered | IC100 [2]: 7 µM | inhibition at 400 µM [3]: 54% | IC50 ([4]; read-out: I50): 1600 nM | IC84 ([4]; read-out: I84): 5.2 µM | IC50 [5]: 2000 nM
